The record followed here is patent US20260265699A1, “STANDARDISING PLURIPOTENT STEM CELLS” (United Kingdom Research and Innovation, priority 2023, published 2026).

Entries after “also recorded” stand apart in the source; their conditions may differ.

Holding throughout (format): cell-based, human
For assay [1], the system named is PSC lines that did not readily differentiate into neural tissue. The assay is described as follows: Cerebral organoid differentiation, unguided protocol (STEMdiff Cerebral Organoid Kit), panel of bad differentiator lines. The following applies: for Effect: organoid morphology: inhibition of Wnt at organoid stage, added at embedding stage. From the text:
The so called “unguided protocol” relies on the natural propensity of PSCs to differentiate to neural fate and specifically forebrain when not exposed to any growth factors. The inventors cultured PSCs in Stemflex (Thermo) medium on plates coated with Matrigel growth factor reduced (Corning) and for generation of brain organoids they used STEMdiff Cerebral Organoid Kit (Stemcell Technologies). […] To address this variability that plagues not only the neural organoid field but also others that rely on 2D and 3D differentiation to a variety of cell types, the inventors investigated the potential sources of this variability in PSCs and potential treatments to address this problem or, in other words, to standardise the performance of PSCs during differentiation.
Because neural differentiation represents the default program upon pluripotency exit, the ability of a cell line to undergo such unguided differentiation is also a good indication of their pluripotent state. The other approach was to in depth characterise PSC lines that either produce good or bad organoids by proteomics and phosphoproteomics, analysis of already available bulk RNAseq data to learn about their transcriptome, and by ATACseq to learn about open chromatin patterns. […] Based on the combination of information gathered from both approaches, a number of treatments were chosen to test on the bad differentiators.

For another assay, the system named is PS cells. Description: PSC basal (maintenance) culture. The settings on record: inhibition of SRC at basal culture, prolonged exposure. From the text:
(§1) The so called “unguided protocol” relies on the natural propensity of PSCs to differentiate to neural fate and specifically forebrain when not exposed to any growth factors. The inventors cultured PSCs in Stemflex (Thermo) medium on plates coated with Matrigel growth factor reduced (Corning) and for generation of brain organoids they used STEMdiff Cerebral Organoid Kit (Stemcell Technologies). Despite these highly standardised conditions (FIG. 1A), the outcome of the protocol (i.e. the identity and quality of the tissues produced) can vary depending on the cell line that was used in the protocol or even between different batches of the same line (FIGS. 1 B and C). This makes producing good quality organoids from different lines difficult and unpredictable. To address this variability that plagues not only the neural organoid field but also others that rely on 2D and 3D differentiation to a variety of cell types, the inventors investigated the potential sources of this variability in PSCs and potential treatments to address this problem or, in other words, to standardise the performance of PSCs during differentiation.
There is a huge body of literature describing potential sources of PSC variability and a similar number of publications about ways to address this in a particular context, for example to increase efficiency of differentiation towards a certain tissue type. […]

The test system of the next assay is burb1 cells. The assay is described as follows: Cerebral organoid differentiation, unguided protocol, burb1 line. From the text:
(§2) The so called “unguided protocol” relies on the natural propensity of PSCs to differentiate to neural fate and specifically forebrain when not exposed to any growth factors. The inventors cultured PSCs in Stemflex (Thermo) medium on plates coated with Matrigel growth factor reduced (Corning) and for generation of brain organoids they used STEMdiff Cerebral Organoid Kit (Stemcell Technologies). Despite these highly standardised conditions (FIG. 1A), the outcome of the protocol (i.e. the identity and quality of the tissues produced) can vary depending on the cell line that was used in the protocol or even between different batches of the same line (FIGS. 1 B and C). This makes producing good quality organoids from different lines difficult and unpredictable. To address this variability that plagues not only the neural organoid field but also others that rely on 2D and 3D differentiation to a variety of cell types, the inventors investigated the potential sources of this variability in PSCs and potential treatments to address this problem or, in other words, to standardise the performance of PSCs during differentiation. […]
(§3) To establish such an approach, the inventors analysed the epigenetic state of human pluripotent stem cells and the role of epigenetics in development. […]

The next assay deals with sojd3 cells. Description: Cerebral organoid differentiation, unguided protocol, sojd3 line. The settings on record: inhibition of Wnt in culture, Stemflex with 2-3 μM IWP2, long term (>8 passages).
Excerpt: as §2, §3

Another assay has as its system fiaj1 cells. The assay is described as follows: Cerebral organoid differentiation, unguided protocol, fiaj1 line. The settings on record: fiaj 1.
Excerpt: as §1
(§4) Because neural differentiation represents the default program upon pluripotency exit, the ability of a cell line to undergo such unguided differentiation is also a good indication of their pluripotent state. […]

Assay [2] concerns kolf2 cells (organoid non-competent batch). Description: Cerebral organoid differentiation, unguided protocol, bad batch of kolf2. The following applies: generation of organoids with MEK inhibition.
Excerpt: as §1, §4

Take `COc1cccc(-c2cn(-c3ccc(CCN4CCC(O)CC4)cc3)c3ncnc(N)c23)c1` [CGP-77675]: the “Effect: organoid differentiation outcome” value in assay [1] (inhibition of SRC at basal culture) was “Worse organoid differentiation”. Further, the “Effect on PS cells in basal culture” value in the assay on PS cells is on record as “outcome, differentiation of PS”.

Take `Cc1ccc2nc(NC(=O)CSc3nc4c(c(=O)n3-c3ccccc3)SCC4)sc2c1` [IWP2]: in assay [1], the “Effect: organoid morphology” value is “embedding stage improve”. Further, the “Effect: organoid generation / brain organoid competency” value in the assay with burb1 cells (inhibition of Wnt in culture, Stemflex with 2-3 μM IWP2, long term (>8 passages)) is given as “able to restore organoid competency; also recorded: acquired brain organoid competency; also recorded: improved organoid”; with sojd3 cells it was “did not improve; also recorded: no improvement in sojd3”.

As for `O=C(NOC[C@H](O)CO)c1ccc(F)c(F)c1Nc1ccc(I)cc1F` [PD0325901], in the assay on fiaj1 cells (generation of organoids with MEK inhibition), the “Effect: improvement of organoid differentiation” value is reported as “batch of kolf2, no”. Moreover, the “Effect: organoid differentiation” value in assay [2] is listed as “Some improvement in bad”.

On to `COc1ccc(N(C(=O)Oc2c(C)cccc2C)c2ccnc(Nc3ccc(N4CCN(C)CC4)cc3)n2)c(OC)c1` [WH-4-023], for which the “Effect: organoid differentiation outcome” value is reported as “no improvement alone,” in assay [1] (inhibition of SRC at organoid generation, alone) and “improves outcome when used” in assay [1] (inhibition of SRC at organoid generation, used alongside with HRG).

As to recombinant human laminin 521 [L521], in the assay with burb1 cells (PSC culture on L521), the “Effect: organoid generation” value is listed as “improved organoid generation”. Besides, the “Effect: organoid differentiation” value with fiaj1 cells (culture on L521 micropatterns, areas of correct differentiation a small percentage of organoid volume) is recorded as “worked to some extent in fiaj 1”.

B1: DKK-1: Wnt inhibition at organoid stage, added at Matrigel embedding (protein, UniProt O94907 32-266, looked up)
Dickkopf-related protein 1: TLNSVLNSNAIKNLPPPLGGAAGHPGSAVSAAPGILYPGGNKYQTIDNYQPYPCAEDEECGTDEYCASPTRGGDAGVQICLACRKRRKRCMRHAMCCPGNYCKNGICVSSDQNHFRGEIEETITESFGNDHSTLDGYSRRTTLSSKMYHTKGQEGSVCLRSSDCASGLCCARHFWSKICKPVLKEGQVCTKHRRKGSHGLEIFQRCYCGEGLSCRIQKDHHQASNSSRLHTCQRH
For B1, the “Effect: organoid morphology” value in assay [1] is “embedding stage improve”.
